From the supplement of paper PMC10307832

Tests used:
Test in all cases: relative viability (nuclei count vs DMSO), 5 days (fraction); higher = more cells survive
[1] = compound: CCCS(=O)(=O)Nc1ccc(F)c(C(=O)c2c[nH]c3ncc(-c4ccc(Cl)cc4)cc23)c1F [Vemurafenib] + Cc1cc(Nc2cc(N3CCN(C)CC3)nc(Sc3ccc(NC(=O)C4CC4)cc3)n2)n[nH]1 [Tozasertib] (partner 0.1 µM)
Summary of the method: (§1)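 Lung cancer cell lines in 1536-well plates got either a single drug or a fixed anchor-drug dose together with five library-drug doses (not always all listed) in √10 steps, by pin tool, on the day after seeding. Nuclei were counted after 5 days, and relative viability is the treated-to-vehicle ratio of nuclei counts. Values are medians of duplicate plates.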

[2] = compound: COc1cccc2cc(-c3nc([C@H]4CC[C@H](C(=O)O)CC4)n4ncnc(N)c34)[nH]c12 [OSI-027] + CC(C)C[C@H](NC(=O)[C@H](Cc1ccccc1)NC(=O)c1cnccn1)B(O)O [Bortezomib] (partner 0.002 µM)
Summary of the method: as §1

[3] = compound: CCCS(=O)(=O)Nc1ccc(F)c(C(=O)c2c[nH]c3ncc(-c4ccc(Cl)cc4)cc23)c1F [Vemurafenib] + COc1cc2c(Oc3ccc(NC(=O)C4(C(=O)Nc5ccc(F)cc5)CC4)cc3F)ccnc2cc1OCCCN1CCOCC1 [Foretinib] (partner 0.25 µM)
Summary of the method: as §1

[4] = compound: Cc1nc(NC(=O)N2CCC[C@H]2C(N)=O)sc1-c1ccnc(C(C)(C)C(F)(F)F)c1 [Alpelisib] + CC(=O)Nc1cccc(-n2c(=O)n(C3CC3)c(=O)c3c(Nc4ccc(I)cc4F)n(C)c(=O)c(C)c32)c1 [Trametinib] (partner 0.02 µM)
Summary of the method: as §1

Cell Line | relative viability ([1]; first compound 0.03162 µM) | relative viability ([1]; first compound 0.1 µM) | relative viability ([1]; first compound 1 µM) | relative viability ([2]; first compound 0.01 µM) | relative viability ([2]; first compound 0.03162 µM) | relative viability ([2]; first compound 0.1 µM) | relative viability ([2]; first compound 0.3162 µM) | relative viability ([2]; first compound 1 µM) | relative viability ([3]; first compound 0.03162 µM) | relative viability ([3]; first compound 0.1 µM) | relative viability ([3]; first compound 1 µM) | relative viability ([4]; first compound 0.04 µM) | relative viability ([4]; first compound 0.1265 µM) | relative viability ([4]; first compound 0.4 µM) | relative viability ([4]; first compound 1.265 µM) | relative viability ([4]; first compound 4 µM) | relative viability ([1]; first compound 0.3162 µM) | relative viability ([3]; first compound 0.3162 µM)
LC-2-ad | 0.396 | 0.466 | 0.44 | 1.03 | 0.984 | 1.05 | 1.09 | 0.662 | 0.859 | 0.705 | 1.01 | 0.902 | 0.93 | 0.968 | 0.764 | 0.738 |  | 
LCLC-97TM1 | 0.206 | 0.268 | 0.166 | 0.271 | 0.554 | 0.369 | 0.154 | 0.193 | 0.974 | 0.854 | 0.971 | 0.194 | 0.167 | 0.165 | 0.133 | 0.159 | 0.269 | 0.985
LCLC-103H | 0.476 | 0.395 | 0.487 | 1.24 | 1.16 | 1.13 | 0.928 | 1 | 0.668 | 0.685 | 0.69 | 0.669 | 0.693 | 0.646 | 0.567 | 0.475 | 0.493 | 0.704
LOU-NH91 | 0.599 |  | 0.705 | 0.452 | 0.486 | 0.473 | 0.546 | 0.455 | 0.914 |  | 0.975 | 0.773 | 0.686 | 0.696 | 0.649 | 0.591 |  | 
LU99A | 0.245 | 0.256 | 0.264 | 1.11 | 0.967 | 0.981 | 0.604 | 0.252 | 0.87 | 0.867 | 0.723 | 0.573 | 0.558 | 0.599 | 0.425 | 0.386 | 0.316 | 0.819
LXF-289 | 0.195 | 0.172 | 0.169 | 1.03 | 1.05 | 1.05 | 0.984 | 0.837 | 0.968 | 0.931 | 1.07 | 0.632 | 0.632 | 0.71 | 0.609 | 0.694 | 0.149 | 1.07
NCI-H23 | 0.309 | 0.352 | 0.278 | 0.967 | 0.834 | 0.944 | 1.02 | 0.656 | 0.981 | 0.685 | 0.719 | 0.287 | 0.354 | 0.252 | 0.286 | 0.233 | 0.345 | 0.953
NCI-H322M | 0.426 |  | 0.446 | 1.23 | 1.24 | 1.13 | 0.983 | 0.986 | 0.923 |  | 1.02 | 0.516 | 0.497 | 0.49 | 0.367 | 0.411 |  | 
NCI-H441 | 0.708 | 0.561 | 0.591 | 0.605 | 0.254 | 0.476 | 0.381 | 0.28 | 0.962 | 0.696 | 0.912 | 0.472 | 0.383 | 0.388 | 0.247 | 0.263 | 0.476 | 0.919
NCI-H460 | 0.389 | 0.28 | 0.156 | 1.41 | 1.14 | 0.862 | 0.94 | 0.139 | 0.96 | 0.982 | 1.05 | 0.093 | 0.161 | 0.155 | 0.0725 | 0.0881 |  | 0.909
NCI-H520 | 0.529 | 0.411 | 0.415 | 0.62 | 0.394 | 0.459 | 0.179 | 0.225 | 0.702 | 0.763 | 0.626 | 0.62 | 0.574 | 0.549 | 0.491 | 0.429 | 0.435 | 0.897
NCI-H596 | 0.886 | 0.767 | 0.904 | 0.869 | 1.02 | 0.884 | 0.897 | 0.892 | 0.921 | 0.643 | 0.922 | 0.801 | 0.815 | 0.708 | 0.48 | 0.44 | 0.813 | 0.695
NCI-H647 | 0.262 | 0.263 | 0.248 | 0.992 | 0.981 | 1 | 0.884 | 0.432 | 1.12 | 1.11 | 1.02 | 0.44 | 0.473 | 0.523 | 0.348 | 0.481 | 0.271 | 1.34
NCI-H650 | 0.696 | 0.703 | 0.614 | 0.738 | 1.05 | 0.431 | 0.549 | 0.406 | 1.01 | 0.983 | 0.879 | 0.996 | 0.921 | 0.962 | 0.749 | 0.774 |  | 
NCI-H661 | 0.325 | 0.334 | 0.358 | 0.811 | 0.734 | 0.802 | 0.666 | 0.395 | 1.06 | 0.956 | 0.965 | 0.618 | 0.593 | 0.645 | 0.52 | 0.462 | 0.396 | 1.08
NCI-H727 | 0.506 | 0.584 | 0.775 | 0.915 | 0.9 | 0.896 | 0.766 | 0.682 | 0.883 | 0.768 | 0.969 | 0.349 | 0.387 | 0.383 | 0.301 | 0.308 | 0.808 | 1.31
NCI-H838 | 0.233 | 0.293 | 0.285 | 0.751 | 0.71 | 0.78 | 0.531 | 0.325 | 0.964 | 1.05 | 1.07 | 0.419 | 0.483 | 0.515 | 0.405 | 0.421 |  | 
NCI-H1355 | 0.545 | 0.559 | 0.435 | 1.24 | 1.19 | 1.01 | 0.926 | 0.528 | 0.922 | 0.924 | 1.03 | 0.397 | 0.421 | 0.386 | 0.356 | 0.292 | 0.56 | 1
